According to patent US20030125337A1, “Inhibitors of multidrug transporters” (priority 1998, published 2003):
Converted amounts (≈) assume the structure as drawn. Where two headings read alike, the source gives them in different places.

Columns and labels:
[1] = system: S. aureus strain SA1199B; assay: Checkerboard synergy testing of inhibitors with ciprofloxacin, S. aureus SA1199B; format: cell-based; conditions: combination with ciprofloxacin
Procedure: (§1) Synergy testing was performed with the strain NA by checkerboard titration in microtiter plates using two-fold serial broth microdilution (Eliopoulus and Moellering Jr., 1996). […] Wells were assessed visually for growth after an 18 h incubation period. The Fractional Inhibitory Concentration (FIC) was calculated for each inhibitor and ethidium combination. The following formulae were used to calculate the FIC index: [drawing 43]
(§2) The inventors have quantitated the effects of the combination of the NorA inhibitors with ciprofloxacin, currently the most widely used fluoroquinolone and the second most prescribed antibiotic. Synergy testing was performed by checkerboard titration as described above for ethidium. […] All five compounds acted in a synergistic manner with ciprofloxacin, having FIC indices <0.5 (see Table 4). The inventors concluded that, similarly to their effects on the bacteriotoxicity of ethidium, each of the tested NorA inhibitors promotes the bacteriotoxicity of ciprofloxacin in a synergistic manner.

[2] = system: S. pneumoniae (SPC2A); assay: Minimal inhibitor concentration decreasing the ciprofloxacin MIC two fold, S. pneumoniae SPC2A; format: cell-based; conditions: Streptococcus pneumoniae, read-out: IC50 S. Pneumoniae
[3] = system: NA strain; assay: Checkerboard synergy testing of inhibitors with ciprofloxacin, NA strain; format: cell-based, B. subtilis; conditions: combination with ciprofloxacin
Procedure: as §1, §2

[4] = system: HeLa cell line; assay: Toxicity on HeLa cell line, Cell Titer 96 AQueous MTS-based assay; parameters: species or system human; conditions: for Selectivity Index (Toxicity HeLa/Effectivity): HeLa IC50 / S. aureus effectivity IC50; for IC50: Homo sapiens, 72 h, HeLa, read-out: Toxicity HeLa IC50
Procedure: Here the inventors proposed to test the toxicity of the identified lead compounds on several human cell lines. To date, the inventors have determined the IC50 of the lead compounds for the HeLa cell line, the results of which are presented in Table 6. The toxicity of the compounds at concentrations ranging from 0.7 μg/ml to 100 μμg/ml was determined in a 96 well plate by adding the compounds to cells 24 h after seeding at a density of 10^4 per well. After incubation with the compounds for 3 days the effect on cell growth was determined using the Cell Titer 96 AQueous MTS-based assay (Promega, Madison, Wis.).

[5] = system: wild type S. aureus SA1199; format: cell-based; conditions: INF inhibitors 5 μg/ml, reserpine 20 μg/ml; for Frequency of emergence of variants resistant to two fold the MIC of ciprofloxacin, Spontaneous: SA1199, ciprofloxacin 1 μg/ml, 48 h; for Frequency of emergence of variants resistant to two fold the MIC of ciprofloxacin, Mutagenized: SA1199 mutagenized with ethylmethane sulfonate; for Fold inhibition of emergence of resistance: ciprofloxacin resistance, SA1199
Procedure: The effect of the inhibitors on the rate of emergence of in vitro selected single-step ciprofloxacin resistant mutants of wild type S. aureus SA1199 (Kaatz et al., 1990) was determined.
Ciprofloxacin resistance in first step in vitro selected mutants of S. aureus is predominantly due to specific point mutations in the targets of this drug, topoisomerase IV and gyrase (Cambau and Gutman, 1993; Ferrero et al., 1994).

[6] = system: S. aureus (SA1199B); assay: Minimal inhibitor concentration decreasing the ciprofloxacin MIC two fold, S. aureus SA1199B; format: cell-based; conditions: Staphylococcus aureus, read-out: Effectivity IC50* S. Aureus
[7] = system: strain NA; assay: Checkerboard synergy testing of inhibitors with ethidium, strain NA; format: cell-based, B. subtilis; conditions: for FIC index: combination with ethidium, strain NA, 18 h, synergy = FIC index <0.5
Procedure: as §1
Synergy was defined as an FIC index of <0.5.

[8] = system: Gram-negative and Gram-positive organisms; conditions: generally, except staphylococci; cited from earlier work
[9] = system: most strains of the following organisms (Staphylococcus aureus, Staphylococcus epidermidis, various Gram negative bacteria); conditions: most strains of listed organisms; cited from earlier work
[10] = target: T1, NorA (Staphylococcus aureus, UniProt P0A0J7); assay: Screen of DiverSet library for reversing the resistance of B. subtilis strain NA to the NorA substrate ethidium bromide; format: cell-based; conditions: ranking or words
T1 construct: expressed in transfected cells; host or cells: Bacillus subtilis strain NA
Procedure: One library for the compounds identified in the present invention is DiverSet™ (ChemBridge Corp., Glenview, Ill.) The screening of this library consisting of 9,600 compounds, has been completed. The chemical library was screened for compounds effective, at concentrations of 20 μg/ml or less, in reversing the resistance of a specially created B. subtilis strain NA to the NorA substrate ethidium bromide. Although the present invention employed NorA as the multidrug transporter in the screening assays it will be understood by one of skill in the art that the compounds identified herein will likely have applicability to other multidrug transporters.
In an exemplary assay, in order to identify a candidate substance as an inhibitor of NorA, the B. subtilis strain NA may be used. […]
The DiverSet™ library of chemical compounds was screened for compounds effective, at concentrations of 20 μg/ml or less, in reversing the resistance of a specially created B. subtilis strain NA to the NorA substrate ethidium bromide. […] These three classes of compounds were evaluated using the activity data provided and the CoMFA fields generated to see if a 3D-QSAR relationship was present.

[11] = system: most strains of certain other organisms (Gram negative aerobes); conditions: most strains of listed Gram negative aerobes; cited from earlier work
[12] = system: Streptococcus pneumoniae; conditions: cited from earlier work
[13] = system: most Gram negative microorganisms; conditions: cited from earlier work
[14] = in vivo; cited from earlier work
[15] = system: most (≧90%) strains of the following microorganisms (Acinetobacter Iwoffi ... Yersinia enterocolitica); conditions: most (≧90%) strains of listed microorganisms; cited from earlier work
[16] = SPC2A, minimal concentration required to decrease the MIC for ciprofloxacin by two fold, N.A. = not active at 5 μg/ml

T1 sequence (P0A0J7 whole entry): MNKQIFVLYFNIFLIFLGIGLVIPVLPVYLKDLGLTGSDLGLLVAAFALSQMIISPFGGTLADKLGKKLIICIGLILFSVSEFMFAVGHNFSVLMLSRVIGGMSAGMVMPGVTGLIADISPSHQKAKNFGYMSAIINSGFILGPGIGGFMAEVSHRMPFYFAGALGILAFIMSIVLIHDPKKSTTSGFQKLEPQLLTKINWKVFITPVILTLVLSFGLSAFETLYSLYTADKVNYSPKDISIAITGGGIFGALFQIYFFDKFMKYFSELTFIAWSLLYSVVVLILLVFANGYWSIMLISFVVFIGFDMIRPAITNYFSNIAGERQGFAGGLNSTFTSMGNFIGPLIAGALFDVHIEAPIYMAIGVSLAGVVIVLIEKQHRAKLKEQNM

SMILES | FIC index SA1199B [1] | FIC index NA [3] | Selectivity Index (Toxicity HeLa/Effectivity) [4] | IC50 ([4]; 3 days, MTS) | Frequency of emergence of variants resistant to two fold the MIC of ciprofloxacin, Spontaneous [5] | Frequency of emergence of variants resistant to two fold the MIC of ciprofloxacin, Mutagenized [5] | Fold inhibition of emergence of resistance [5] | IC50 [6] | FIC index [7] | other results
COc1ccccc1NC(=O)Nc1ccc2ccccc2c1 [INF 271] | 0.18 | 0.12 | 12 | 18 µg/mL (≈ 61.6 µM) | <5 × 10^−11 | <2.5 × 10^−10 | >50 | 1.5 µg/mL (≈ 5.13 µM) | 0.07 | IC50 [2, 16]: 2.5 µg/mL (≈ 8.55 µM)
CCn1cc(C(=O)O)c(=O)c2cc(F)c(N3CCNC(C)C3)c(F)c21 (stereo not shown) [lomefloxacin] | – | – | – | – | – | – | – | – | – | factor by which MBC exceeds MIC [8]: ≤ 2; in vitro MICs [9]: ≤ 2 µg/mL
O=c1nc(SCc2ccccc2)[nH]c(O)c1C(c1ccccc1)c1ccccc1 [compound 41] | – | – | – | – | – | – | – | – | – | relative inhibitory activity in the initial screening [10]: most active lead compound in this category
CCn1cc(C(=O)O)c(=O)c2cc(F)c(N3CCNCC3)nc21 [enoxacin] | – | – | – | – | – | – | – | – | – | in vitro minimum inhibitory concentrations (MICs) [11]: ≤ 2.0 µg/mL
O=c1nc(SCc2ccccc2)[nH]c2c1[C@H](c1ccccc1)c1ccccc1O2 [INF 392] | 0.15 | 0.28 | 450 | – | 5 × 10^−11 | 1 × 10^−9 | 25 | 0.1 µg/mL (≈ 0.251 µM) | 0.14 | IC50 [2]: 2.5 µg/mL (≈ 6.27 µM); IC50 [4]: 45 µg/mL (≈ 113 µM)
O=C(/C=C/c1ccccc1)Nc1cccc(/C=C/C(=O)c2ccccc2)c1 [INF 240] | 0.28 | 0.12 | 2.5 | 2 µg/mL (≈ 5.66 µM) | <5 × 10^−11 | <2.5 × 10^−10 | >50 | 0.8 µg/mL (≈ 2.26 µM) | 0.16 | –
O=C(O)c1cn(C2CC2)c2cc(N3CCNCC3)c(F)cc2c1=O [ciprofloxacin] | – | – | – | – | – | – | – | – | – | MIC90 [12]: 1 to 2 µg/mL; MIC90 [13]: ~0.1 µg/mL (≈ 0.302 µM); achievable tissue concentration [14]: 4 µg/mL; in vitro minimal inhibitory concentrations (MICs) [15]: ≤ 1 µg/mL
CC[n+]1c(-c2ccccc2)c2cc(N)ccc2c2ccc(N)cc21 [ethidium, ethidium bromide, reference compound] | – | – | – | – | – | – | – | – | – | MIC ([7]; Bacillus subtilis, read-out: MIC for the strain NA): 40 µg/mL
CC1(C)CC(=O)C2=C(C1)c1c(ccc3ccccc13)NC2c1cc(Br)ccc1O (stereo not shown) [INF 277] | 0.28 | 0.15 | 6 | – | <5 × 10^−11 | <2.5 × 10^−10 | >50 | 0.8 µg/mL (≈ 1.78 µM) | 0.09 | IC50 [2]: 5 µg/mL (≈ 11.2 µM); IC50 [4]: 5 µg/mL (≈ 11.2 µM)
O=[N+]([O-])c1ccc2[nH]c(-c3ccccc3)cc2c1 [INF 55] | 0.25 | 0.25 | 27 | 40 µg/mL (≈ 168 µM) | <5 × 10^−11 | <2.5 × 10^−10 | >50 | 1.5 µg/mL (≈ 6.3 µM) | 0.08 | IC50 [2, 16]: 5 µg/mL (≈ 21 µM)
